{"source": "patent US20220378756A1", "about": "“ACTIVATING PYRUVATE KINASE R” (FORMA Therapeutics, Inc., priority 2019, published 2022)", "test_system": "2,3-DPG, ATP and p50 in blood", "test": "Phase 1 SAD/MAD, healthy volunteers: pharmacodynamics", "assay_type": "in vivo, human", "settings": "for median reduction in the concentration of 2,3-DPG, relative to baseline: HV MAD; for Median Percentage Change in 2,3-DPG Levels / Median Percentage Change in ATP Levels (Day 14) / Mean Absolute Change in p50 (mmHg) (Day 14): HV; for Mean Absolute Change in p50 (mmHg) (Day 14): vs baseline", "description": "This is a first-in-human (FIH), Phase 1 study of Compound 1 that will characterize the safety, PK, and PD of Compound 1 after a single dose and after repeated dosing first in healthy adult volunteers and then in adolescents or adults with sickle cell disease. Initially, a dose range of Compound 1 in single ascending dose (SAD) escalation cohorts will be explored in healthy subjects. Enrollment of healthy subjects into 2-week multiple ascending dose (MAD) escalation cohorts will be initiated once the safety and PK from at least two SAD cohorts is available to inform the doses for the 2-week MAD portion of the study. The MAD cohorts will then run in parallel to the single dose cohorts. A single dose cohort is planned to understand food effects (FE) on the PK of Compound 1. […] Multiple dose studies in SCD subjects will then be initiated upon completion of MAD studies in healthy volunteers. Compound 1 will be administered in 25 mg and 100 mg tablets delivered orally.\nIn this study, SAD/MAD cohorts are randomized (3 to 1) to receive Compound 1 or placebo (P). Compound 1 was evaluated first in 4 healthy SAD cohorts and 4 healthy MAD (14-day dosing period) cohorts. Based on the safety, and PK/PD profile from HS, Compound 1 is then evaluated in 1 SCD SAD cohort and 2 SCD MAD cohorts. Specifically, based on the safety and pharmacokinetic/pharmacodynamics (PK/PD) profile in healthy volunteer studies, Compound 1 is evaluated in patients (pts) with SCD, first in a single dose (SD or SAD) cohort and then in multiple-dose (MD or MAD) cohorts (14-day and 12-week). Safety assessments include AEs, vital signs, ECGs and laboratory parameters. PK/PD blood sampling was performed on Day 1 (SAD/MAD) and Day 14 (MAD) and up to 72 h after the last dose and at the end-of-study visit. PD parameters included 2,3-DPG, ATP, and p50 in all cohorts with additional PD studies (including oxygen scan) performed only in the SCD cohorts. PD parameters included 2,3-DPG, ATP, p50, RBC deformability with controlled deoxygenation and reoxygenation (Lorrca® oxygen scan) and varying osmolality (Lorrca® osmoscan)). To maintain study blind, pt identifiers were removed when needed.\nFour healthy SAD cohorts were evaluated at doses of 200, 400, 700, and 1000 mg, and four healthy MAD cohorts received 200 to 600 mg total daily doses for 14 days at QD or BID dosing (100 mg BID, 200 mg BID, 300 mg BID, and 400 mg QD). In the food effect (FE) cohort, 10 healthy subjects received 200 mg of Compound 1 QD with and without food.\nIn the SAD cohorts, the subjects' blood 2,3-DPG levels were measured periodically after dosing by a qualified LC-MS/MS method for the quantitation of 2,3-DPG in blood. Decreased 2,3-DPG blood levels were observed 6 hours following a single dose of Compound 1 at all dose levels (earlier timepoints were not collected). Maximum decreases in 2,3-DPG levels generally occurred ˜24 hours after the first dose with the reduction sustained ˜48-72 hr postdose. Table 16 reports the median percentage change in 2,3-DPG blood levels, relative to baseline, measured over time in healthy volunteers after a single dose of Compound 1 (200 mg, 400 mg, 700 mg, or 1000 mg) or placebo. Accordingly, the median reduction in the concentration of 2,3-DPG, relative to baseline, was at least about […] at all dose levels tested 24 hours after administration of the single dose.\nIn the MAD cohorts, the subjects' blood 2,3-DPG levels were measured periodically after dosing by a qualified LC-MS/MS method for the quantitation of 2,3-DPG in blood. The maximum decrease in 2,3-DPG on Day 14 was 55% from baseline (median). […] Table 18 reports the median percentage change in 2,3-DPG blood levels, relative to baseline, measured over time after the first dose on days 1 and 14 in healthy volunteers who received daily doses of Compound 1 (100 mg BID, 200 mg BID, or 300 mg BID) or placebo for 14 days. […]", "key": {"[1]": {"settings": "100 mg BID, Day 14, 0 h after first daily dose"}, "[2]": {"settings": "100 mg BID, Day 14, 6 h after first daily dose"}, "[3]": {"settings": "100 mg BID, Day 14, 8 h after first daily dose"}, "[4]": {"settings": "100 mg BID, Day 14, 12 h after first daily dose"}, "[5]": {"settings": "100 mg BID, Day 14, 16 h after first daily dose"}, "[6]": {"settings": "100 mg BID, Day 14, 24 h after first daily dose"}, "[7]": {"settings": "100 mg BID, Day 14, 48 h after first daily dose"}, "[8]": {"settings": "100 mg BID, Day 14, 72 h after first daily dose"}, "[9]": {"settings": "200 mg BID, Day 14, 0 h after first daily dose"}, "[10]": {"settings": "200 mg BID, Day 14, 6 h after first daily dose"}, "[11]": {"settings": "200 mg BID, Day 14, 8 h after first daily dose"}, "[12]": {"settings": "200 mg BID, Day 14, 12 h after first daily dose"}, "[13]": {"settings": "200 mg BID, Day 14, 16 h after first daily dose"}, "[14]": {"settings": "200 mg BID, Day 14, 24 h after first daily dose"}, "[15]": {"settings": "200 mg BID, Day 14, 48 h after first daily dose"}, "[16]": {"settings": "200 mg BID, Day 14, 72 h after first daily dose"}}}
{"smiles": "O=C([C@H](CO)c1ccccc1)N1CC2=C(C1)CN(S(=O)(=O)c1cnc3c(c1)OCCO3)C2", "note": "(single isomer, unassigned) [Compound 1]", "values": [{"measurement": "maximum decrease in 2,3-DPG from baseline (median)", "setting": "HV MAD cohorts, Day 14", "value": 55, "unit": "%"}, {"measurement": "median reduction in the concentration of 2,3-DPG, relative to baseline", "setting": "all dose levels, 24 hours after first dose on day 1", "value": "at least 25%"}, {"measurement": "median reduction in the concentration of 2,3-DPG, relative to baseline", "setting": "all dose levels, 24 hours after first dose on day 14", "value": "at least 40%"}, {"measurement": "median reduction of p50", "setting": "HV SAD, all dose levels, 24 hours after a single dose", "value": "3-5 mmHg"}, {"measurement": "Median Percentage Change in 2,3-DPG Levels", "setting": "100 mg BID, Day 1, 0 h after first daily dose", "value": 0.0, "unit": "%"}, {"measurement": "Median Percentage Change in 2,3-DPG Levels", "setting": "100 mg BID, Day 1, 6 h after first daily dose", "value": "−16.1", "unit": "%"}, {"measurement": "Median Percentage Change in 2,3-DPG Levels", "setting": "100 mg BID, Day 1, 8 h after first daily dose", "value": "−12.1", "unit": "%"}, {"measurement": "Median Percentage Change in 2,3-DPG Levels", "setting": "100 mg BID, Day 1, 12 h after first daily dose", "value": "−18.1", "unit": "%"}, {"measurement": "Median Percentage Change in 2,3-DPG Levels", "setting": "100 mg BID, Day 1, 16 h after first daily dose", "value": "−18.4", "unit": "%"}, {"measurement": "Median Percentage Change in 2,3-DPG Levels", "setting": "100 mg BID, Day 1, 24 h after first daily dose", "value": "−27.8", "unit": "%"}, {"measurement": "Median Percentage Change in 2,3-DPG Levels", "setting": "[1]", "value": "−42.0", "unit": "%"}, {"measurement": "Median Percentage Change in ATP Levels (Day 14)", "setting": "[1]", "value": 41.5, "unit": "%"}, {"measurement": "Median Percentage Change in 2,3-DPG Levels", "setting": "[2]", "value": "−44.3", "unit": "%"}, {"measurement": "Median Percentage Change in ATP Levels (Day 14)", "setting": "[2]", "value": 43.8, "unit": "%"}, {"measurement": "Median Percentage Change in 2,3-DPG Levels", "setting": "[3]", "value": "−44.7", "unit": "%"}, {"measurement": "Median Percentage Change in ATP Levels (Day 14)", "setting": "[3]", "value": 47.8, "unit": "%"}, {"measurement": "Median Percentage Change in 2,3-DPG Levels", "setting": "[4]", "value": "−43.6", "unit": "%"}, {"measurement": "Median Percentage Change in ATP Levels (Day 14)", "setting": "[4]", "value": 45.4, "unit": "%"}, {"measurement": "Median Percentage Change in 2,3-DPG Levels", "setting": "[5]", "value": "−43.9", "unit": "%"}, {"measurement": "Median Percentage Change in ATP Levels (Day 14)", "setting": "[5]", "value": 44.8, "unit": "%"}, {"measurement": "Median Percentage Change in 2,3-DPG Levels", "setting": "[6]", "value": "−44.1", "unit": "%"}, {"measurement": "Median Percentage Change in ATP Levels (Day 14)", "setting": "[6]", "value": 55.0, "unit": "%"}, {"measurement": "Median Percentage Change in 2,3-DPG Levels", "setting": "[7]", "value": "−34.7", "unit": "%"}, {"measurement": "Median Percentage Change in ATP Levels (Day 14)", "setting": "[7]", "value": 52.2, "unit": "%"}, {"measurement": "Median Percentage Change in 2,3-DPG Levels", "setting": "[8]", "value": "−20.2", "unit": "%"}, {"measurement": "Median Percentage Change in ATP Levels (Day 14)", "setting": "[8]", "value": 49.2, "unit": "%"}, {"measurement": "Mean Absolute Change in p50 (mmHg) (Day 14)", "setting": "200 mg BID for 14 days", "value": "−4.14", "unit": "mmHg"}, {"measurement": "Median Percentage Change in 2,3-DPG Levels", "setting": "200 mg BID, Day 1, 0 h after first daily dose", "value": 0.0, "unit": "%"}, {"measurement": "Median Percentage Change in 2,3-DPG Levels", "setting": "200 mg BID, Day 1, 6 h after first daily dose", "value": "−13.1", "unit": "%"}, {"measurement": "Median Percentage Change in 2,3-DPG Levels", "setting": "200 mg BID, Day 1, 8 h after first daily dose", "value": "−22.3", "unit": "%"}, {"measurement": "Median Percentage Change in 2,3-DPG Levels", "setting": "200 mg BID, Day 1, 12 h after first daily dose", "value": "−23.1", "unit": "%"}, {"measurement": "Median Percentage Change in 2,3-DPG Levels", "setting": "200 mg BID, Day 1, 16 h after first daily dose", "value": "−33.9", "unit": "%"}, {"measurement": "Median Percentage Change in 2,3-DPG Levels", "setting": "200 mg BID, Day 1, 24 h after first daily dose", "value": "−43.5", "unit": "%"}, {"measurement": "Median Percentage Change in 2,3-DPG Levels", "setting": "[9]", "value": "−48.2", "unit": "%"}, {"measurement": "Median Percentage Change in ATP Levels (Day 14)", "setting": "[9]", "value": 55.3, "unit": "%"}, {"measurement": "Median Percentage Change in 2,3-DPG Levels", "setting": "[10]", "value": "−48.5", "unit": "%"}, {"measurement": "Median Percentage Change in ATP Levels (Day 14)", "setting": "[10]", "value": 48.1, "unit": "%"}, {"measurement": "Median Percentage Change in 2,3-DPG Levels", "setting": "[11]", "value": "−44.3", "unit": "%"}, {"measurement": "Median Percentage Change in ATP Levels (Day 14)", "setting": "[11]", "value": 58.4, "unit": "%"}, {"measurement": "Median Percentage Change in 2,3-DPG Levels", "setting": "[12]", "value": "−42.2", "unit": "%"}, {"measurement": "Median Percentage Change in ATP Levels (Day 14)", "setting": "[12]", "value": 56.2, "unit": "%"}, {"measurement": "Median Percentage Change in 2,3-DPG Levels", "setting": "[13]", "value": "−42.9", "unit": "%"}, {"measurement": "Median Percentage Change in ATP Levels (Day 14)", "setting": "[13]", "value": 57.0, "unit": "%"}, {"measurement": "Median Percentage Change in 2,3-DPG Levels", "setting": "[14]", "value": "−44.3", "unit": "%"}, {"measurement": "Median Percentage Change in ATP Levels (Day 14)", "setting": "[14]", "value": 64.0, "unit": "%"}, {"measurement": "Median Percentage Change in 2,3-DPG Levels", "setting": "[15]", "value": "−38.7", "unit": "%"}, {"measurement": "Median Percentage Change in ATP Levels (Day 14)", "setting": "[15]", "value": 58.9, "unit": "%"}, {"measurement": "Median Percentage Change in 2,3-DPG Levels", "setting": "[16]", "value": "−20.2", "unit": "%"}, {"measurement": "Median Percentage Change in ATP Levels (Day 14)", "setting": "[16]", "value": 54.0, "unit": "%"}, {"measurement": "Mean Absolute Change in p50 (mmHg) (Day 14)", "setting": "300 mg BID for 14 days", "value": "−5.34", "unit": "mmHg"}, {"measurement": "Median Percentage Change in 2,3-DPG Levels", "setting": "300 mg BID, Day 1, 0 h after first daily dose", "value": 0.0, "unit": "%"}, {"measurement": "Median Percentage Change in 2,3-DPG Levels", "setting": "300 mg BID, Day 1, 6 h after first daily dose", "value": "−18.8", "unit": "%"}, {"measurement": "Median Percentage Change in 2,3-DPG Levels", "setting": "300 mg BID, Day 1, 8 h after first daily dose", "value": "−23.8", "unit": "%"}, {"measurement": "Median Percentage Change in 2,3-DPG Levels", "setting": "300 mg BID, Day 1, 12 h after first daily dose", "value": "−31.6", "unit": "%"}]}
